Data as given in a melting point compilation (Tetko et al.; mined from patent text by program, amines drawn as free bases though some values may be those of a salt).

SMILES	melting point
COc1ccc2[nH]cc(-c3cc4c(OC)ccnc4[nH]3)c2c1	294 to 295 °C
COc1cc(C(=O)c2ncc3ccc(C(=O)O)cn23)ccc1[N+](=O)[O-]	313 °C
CC1(C)Nc2ncc(-c3ccc(C(=O)N4CCC[C@H]4CN4CCCC4)cc3)cc2N(Cc2cc(F)ccc2F)C1=O	171 to 172 °C
CCCCn1c(=O)c2nn(S(=O)(=O)c3c(Cl)cc(Cl)cc3Cl)cc2n(CCCC)c1=O	89 to 92 °C
CCOC(=O)Cn1c(-c2ccc(Br)cc2)nc2cccnc21	138 to 139 °C
Cc1csc(C2(c3cccs3)CCCO2)n1 (stereo not drawn)	59 to 60 °C
CC(C)c1cccc(C(C)C)c1NC(=O)NCC1CCc2ccccc21 (stereo not drawn)	183 to 185 °C
CCC(=O)Nc1cc(OC)cc2c1CC(C)O2 (stereo not drawn)	101 °C
CCCC(=O)NS(=O)(=O)c1ccc(C(=O)/C=C/c2cc(N3CCCC3)c(OC)cc2OC)cc1	193 to 195 °C
CC(=O)N(O)CCc1ccc2c(c1)C(=O)c1ccccc1CO2	113 to 115 °C
O=C(O)CCCCc1cc2nc(Cl)ccc2n1S(=O)(=O)c1ccc2ncsc2c1	169 °C
Cc1nc(N2CCN(Cc3ccc(OC(F)(F)F)cc3)C2=O)sc1C(=O)NC[C@H](O)c1ccccc1	149 to 151 °C
COC(=O)c1cccc(O)c1O	79 to 81 °C
O=C1c2ccc(Br)cc2C(=O)N1c1ccc(Cl)cc1C(F)(F)F	174 to 175 °C
CCC(=O)[C@@H](NC(=O)OCc1ccccc1)C(C)C	49 to 50 °C
COC(=O)c1ccccc1Nc1ccccc1	92.5 to 102 °C
C[C@H]1Cc2c(F)c(F)cc3c(=O)c(C(=O)O)cn1c23	279 to 283 °C
O=C(Cc1ccccc1)N[C@@H]1C(=O)N2C(C(=O)O)=C(OS(=O)(=O)C(F)(F)F)NC[C@H]12 (racemic)	100 to 102 °C
COC(=O)C(CCCCNC(=O)c1ccc(NC(=O)OCc2ccccc2)cc1)n1c2ccccc2c2ccccc21 (stereo not drawn)	87 to 88 °C
CC1(c2ccccc2)C2=C(COC2=O)Nc2cc3c(cc21)OCO3 (stereo not drawn)	> 260 °C
CCCN1CC(c2cccc(Br)c2)=C(c2ccc(S(N)(=O)=O)cc2)C1=O	162 to 163 °C
O=c1cc(-c2ccccc2)oc2ccc(OCCCCN3CCC(O)CC3)cc12	124 to 125 °C
O=C(NCCNCC(O)COc1ccccc1)c1cc(O)ccc1O (stereo not drawn)	178 to 180 °C
CCCCOc1ccc(S(=O)(=O)C2(C(=O)NO)CCN(Cc3ccncc3)CC2)cc1	118 °C
CC1(C)CC(c2ccc3ccccc3n2)c2cc(C#N)ccc2O1 (stereo not drawn)	174 to 176 °C

SMILES	melting point
CCOC(=O)Oc1cc2occ(C=O)c(=O)c2cc1OC(=O)OCC	101 to 102 °C
CC(C)CN1C(=O)c2cnc(-c3ccccc3)nc2N(C(=O)CCl)c2ccccc21	95 to 96 °C
CS(=O)(=O)c1cc([N+](=O)[O-])ccc1OC(F)(F)F	102 to 104 °C
N#CCCNCCCC(=O)O	122 to 124 °C
Nc1cccc2snnc12	67 °C
COC(=O)C1=NNC(C)=C(C(=O)OC(C)C)C1c1cccc([N+](=O)[O-])c1 (stereo not drawn)	193 °C
Cc1ccc2c(=O)n3nc(C)cc3[nH]c2n1	> 300 °C
CC(=O)Oc1c(C2CCN(CCCCNC(=O)c3ccc(-c4ccc(C#N)cc4)cc3)CC2)ccc2ccccc12	115 to 120 °C
Cc1c(NC(=O)CC(C)(C)C)c(C)c2c(c1-c1ccccn1)OCC2c1ccc(C(C)C)cc1 (stereo not drawn)	198 to 200 °C
CCOCc1nc2c(N)nc3ccccc3c2s1	149 to 151 °C
O=C(Nc1cccc(Cl)c1)Nc1cnnc(Cl)c1	240 to 248 °C
COc1cc(-c2n[nH]c3c2Cc2ccccc2-3)cc(OC)c1OC	185 to 187 °C
CC(C)c1nc(CCl)n(C)c1Sc1cc(Cl)cc(Cl)c1	110 to 111 °C
CNc1ccc(Cl)cc1-c1cc2ccccc2[nH]1	123 to 126 °C
Cc1cccc(CC(Nc2ccc3c(c2)C(=O)OC3)C(=O)NC(C#N)CCCCc2cccc(C(=O)O)c2)c1 (stereo not drawn)	91 to 94 °C
C[C@@H]1O[C@](C#CC2CC2)(C(F)(F)F)c2c(ccc(F)c2F)NC1=O (relative stereo)	219 to 220 °C
C[C@]12CC[C@H](O)CC1=CCC1C2CC[C@@]2(C)C1CC[C@@H]2C1=CC(=O)OC1 (stereo partly drawn)	286 to 287 °C
Fc1ccc(-c2nc3n(c2-c2ccnc(Nc4ccccc4)c2)CCS3)cc1	299 °C
O=[N+]([O-])c1ccc(F)cc1CS(=O)(=O)c1cccc2ccccc12	155 to 160 °C
O=C(O)Cc1c(C(=O)c2ccc(Cl)cc2Cl)[nH]c2cc(Cl)ccc12	190 to 192 °C
CC1(CCl)CN(C2CCN(c3cccc(OC(F)(F)F)c3)C2=O)C1=O (stereo not drawn)	104 to 106 °C
CCC(=O)C(CCCCCCOc1ccc(S(N)(=O)=O)cc1)C(=O)CC	86 to 87 °C
Cn1c(=O)c2c(ncn2CCOC(=O)C(C)(C)Oc2ccc(Cl)cc2)n(C)c1=O	131 to 132 °C
CNC(=O)c1ccc(OCC(O)CNC(C)COc2ccc(O)c(C(N)=O)c2)cc1 (stereo not drawn)	172 to 175 °C
Cc1c(SCCCSCc2ccncc2)ccnc1CNc1cnc2ccccc2c1	116 to 119 °C

SMILES	melting point
C#CCOc1cccc(-c2nc3cnncc3[nH]2)c1OC	224 °C
CCS(=O)(=O)c1cccc(-c2nc(=O)c3ccccc3s2)n1	202 to 203 °C
Cc1ccc(N2CN(C)CNC2=S)cc1	176 to 178 °C
COc1ccc(N=C(C#Cc2ccccc2)N2CCCN(Cc3ccc(C)cc3)CC2)cc1	66 °C
CCOC(=O)c1cc(CCCOCCCCCCNCC(O)c2cc(Cl)c(N)c(Cl)c2)ccn1 (stereo not drawn)	68 to 70 °C
CCOC(=O)CNC(=O)C(C)(C(C)C)C(C)C	74.5 to 75.5 °C
CCCN1C(=O)CC(=O)N(CCC)C1=O	77 to 80 °C
O=Cc1ccc(-c2cc(O)ccc2O)cc1	203 to 205 °C
NC(=O)c1c(-c2ccc(Cl)cc2)csc1N	150 to 151 °C
CC(Oc1ncn(-c2cc(Cl)cc(Cl)c2)n1)C(=O)O (stereo not drawn)	230 to 231 °C
CS(=O)(=O)c1ccc(-n2cnc(Cl)c2-c2ccc(Cl)nc2)cc1	223 °C
CCOCc1nc2c(N)nc3cc(-c4cccc(C(=O)N5CCOCC5)c4)ccc3c2n1CC(C)(C)O	152 to 154 °C
CCCC(=O)NCCN1CCOc2ccc(OC)cc21	73 to 74 °C
COc1ccc(CNc2nc(CCCCCCC(=O)O)nc3sc(Cl)cc23)cc1Cl	137 °C
O=C(C(=Cc1ccc(F)cc1)S(=O)(=O)c1ccccc1)c1ccccc1	142 to 143 °C
CCCc1cc(CC(=O)OC)ccc1OC1COc2ccc(C(C)=O)c(O)c2C1 (stereo not drawn)	59 to 60 °C
Cc1oc(-c2ccccc2)nc1COc1ccc(OC(C)(C)C(=O)O)cc1	136 to 138 °C
O=C(NCCCCN1CCC(c2ccc3c(c2O)CCCC3)CC1)c1ccc(-c2ccc(C(F)(F)F)cc2)cc1	220 to 222 °C
COC(=O)c1ccccc1-n1c(CCl)nc2ccc(F)cc2c1=O	213 to 215 °C
CCCCCc1ccc(C(=O)NC2N=C(c3ccccc3)c3ccccc3NC2=O)cc1 (racemic)	203 to 205 °C
O=Cc1ccc2nccnc2c1	134 °C
CCNC(=O)Nc1nc2cc(OCc3ccccc3)cc(Br)c2s1	294 °C
CCOC(=O)c1nnc2n1-c1sc(CC)cc1C(c1ccccc1Cl)=NC2	138 to 140 °C
O=C1C[C@@H]2[C@@H](/C=C/C(=O)C3CCCCC3)[C@H](OC(=O)c3ccccc3)C[C@@H]2O1	151 to 153 °C
COc1ccc(N2C(=O)C3Cc4c(ncn4Cc4ccccc4)CN3C2=S)cc1 (stereo not drawn)	100 to 120 °C

SMILES	melting point
CCOC(=O)c1c(CCCn2cncn2)nc2sc3c(c2c1-c1ccc(OC)c(OC)c1)CCN(C(=O)c1ccc(Cl)cc1)C3	114 to 116 °C
CC1(C)CCc2c(-c3ccoc3)nc3sc4c(NCc5cccnc5)ncnc4c3c2C1	247 to 248 °C
CCc1nn(CCOc2ccc(CC3SC(=O)NC3=O)cc2)c(=O)c2ccccc12 (stereo not drawn)	174 °C
COC(=S)c1cc(C)cc(C)c1	46 °C
COc1ccc2c(c1)CC[C@@H]1[C@@H]2CC[C@@]2(C)[C@H]1CCC2(OC)OC	104 to 116 °C
COC(=O)CC(NSc1ccccc1[N+](=O)[O-])C(=O)O (stereo not drawn)	108 to 109 °C
O=C(CCCN1CCOCC1)c1ccc2c(c1)C(=O)c1cc(C(=O)CCCN3CCOCC3)ccc1-2	174 to 176 °C
C#CCNC(=O)c1cccc(-c2ccc3cnc(Nc4ccc(N5CCN(C)CC5)cc4)nn23)c1	185 to 187 °C
CC(C)=NN=C(c1ccc(Cl)cc1)c1ccc(OS(C)(=O)=O)cc1	148 to 149 °C
O=C(O)[C@H](CCc1ccccc1)NS(=O)(=O)c1ccc2c(c1)sc1ccccc12	210 to 212 °C
COc1ccc(C(O)Cc2c(Cl)cncc2Cl)c2c1OC(C)(C)C2 (stereo not drawn)	100 to 104 °C
CC(=O)NC[C@H]1CN(c2cc(F)c(N3CCC(n4nnc(N5CCN(Cc6ccccc6)CC5)n4)CC3)c(F)c2)C(=O)O1	188 to 190 °C
COc1cccc(OC)c1C(=O)N1CC2CCCN2c2ccccc21 (stereo not drawn)	140 to 142 °C
Cc1nn2ccccc2c1C=O	77 to 79 °C
CC1(O)c2ccccc2-c2c1c(-n1ccnc1)nc1ccc(Br)cc21 (stereo not drawn)	175 to 180 °C
CCOCCOc1cc(OC)c(C(CC(=O)Nc2cc(C(N)=O)ccc2C(C)(C)C)CC(C)C)cc1Cl (stereo not drawn)	180 to 181 °C
CC1CC2C3CCC4CC(O)CCC4(C)C3C(O)CC2(C)C1C1(C)OCCO1 (stereo not drawn)	109 to 111 °C
COc1cc(Nc2c(C#N)cnc3sc(I)cc23)c(Cl)cc1Cl	231 to 233 °C
O=C1c2ccc([N+](=O)[O-])cc2C(=O)N1C1CCN(Cc2cccnc2)CC1	143 to 144 °C
Cc1ccc(-c2cnc(C#Cc3ccc(C)s3)s2)cc1	101 to 103 °C
CCC(=S)NC[C@H]1CN(c2ccc(N3CCN(C#N)CC3)c(F)c2)C(=O)O1	182 to 184 °C
COc1ccc(C(=O)Oc2ccccc2)nc1C	103 to 105 °C
COC(=O)COc1cccc2c1c(C(=O)C(N)=O)c(C)n2Cc1ccccc1	202 to 215 °C
